# Structures can show the parent of a compound that is named as a salt. Where two headings read alike, the source gives them in different places.
# Target: T1, human AspH (His6-AspH315–758) (Homo sapiens, UniProt Q12797)
# T1 construct: N-Terminally His6-tagged human AspH315–758 (His6-AspH315–758) was produced in Escherichia coli BL21 (DE3) cells; made in house; host or cells: Escherichia coli BL21 (DE3), pET-28a(+) vector
# T1 sequence (Q12797 315-758): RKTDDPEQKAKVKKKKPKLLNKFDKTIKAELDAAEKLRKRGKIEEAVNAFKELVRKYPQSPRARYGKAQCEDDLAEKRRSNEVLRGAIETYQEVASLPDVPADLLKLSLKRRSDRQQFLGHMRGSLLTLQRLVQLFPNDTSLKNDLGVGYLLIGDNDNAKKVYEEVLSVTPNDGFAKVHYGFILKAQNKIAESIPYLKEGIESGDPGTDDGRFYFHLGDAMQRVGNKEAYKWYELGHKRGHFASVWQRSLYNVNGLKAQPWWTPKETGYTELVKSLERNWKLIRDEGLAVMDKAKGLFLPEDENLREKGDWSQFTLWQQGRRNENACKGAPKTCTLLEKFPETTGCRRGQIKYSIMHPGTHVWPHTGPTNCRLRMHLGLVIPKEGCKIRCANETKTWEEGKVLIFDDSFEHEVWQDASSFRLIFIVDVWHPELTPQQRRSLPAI
# Experiment: SPE-MS AspH inhibition assay (hFX-CP101-119 substrate hydroxylation)
# Type: biochemical
# [1] = AspH-inhibitor screening, 384-well Plate 1
# [2] = AspH-inhibitor screening, 384-well Plate 1, substrate conversion
# [3] = AspH-inhibitor screening, Plate 1-duplicate
# [4] = AspH-inhibitor screening, Plate 1-duplicate, substrate conversion
SMILES,Plate 1 (% inhibition) [1],Plate 1 (% conversion) [2],Plate 1-duplicate (% inhibition) [3],Plate 1-duplicate (% conversion) [4],Plate 1 (% conversion),Plate 1 (% inhibition),Plate 1-duplicate (% conversion),Plate 1-duplicate (% inhibition)
COc1cc(Nc2c(C#N)cnc3cc(OCCCN4CCN(C)CC4)c(OC)cc23)c(Cl)cc1Cl [Bosutinib],-48.53%,72.16%,-50.33%,77.00%,,,,
Cc1cc2c(F)c(Oc3ncnn4cc(OC[C@@H](C)O)c(C)c34)ccc2[nH]1 [Brivanib],6.97%,46.53%,3.72%,50.20%,,,,
CS(=O)(=O)OCCCCOS(C)(=O)=O [Busulfan],14.61%,43.00%,8.69%,47.73%,,,,
CC[C@H](Nc1ncnc2[nH]cnc12)c1nc2cccc(F)c2c(=O)n1-c1ccccc1 [CAL-101],5.28%,47.31%,3.08%,50.52%,,,,
CN1CCN(c2ccc3nc(-c4c(N)c5c(F)cccc5[nH]c4=O)[nH]c3c2)CC1 [CHIR-258 (Dovitinib)],-15.11%,56.73%,-6.96%,55.49%,,,,
CC(C)C[C@@H](C(=O)N[C@H](C(=O)OC1CCCC1)c1ccccc1)[C@H](O)C(=O)NO [CHR 2797_Tosedostat],-9.77%,54.26%,-16.99%,60.47%,,,,
CC(=O)Nc1ccc(C(=O)Nc2ccccc2N)cc1 [CI-994_Tacedinaline],4.32%,47.76%,4.57%,49.78%,,,,
O=C(O)CCCCC(CCSCc1ccccc1)SCc1ccccc1 (stereo not drawn) [CPI-613],-2.25%,50.79%,-2.45%,53.26%,,,,
C#Cc1cccc(Nc2ncnc3cc(OC)c(OCCCCCCC(=O)NO)cc23)c1 [CUDC-101],70.67%,17.12%,72.15%,16.26%,,,,
N#CCNC(=O)c1ccc(-c2ccnc(Nc3ccc(N4CCOCC4)cc3)n2)cc1 [CYT-387_Momelotinib],5.72%,47.11%,4.84%,49.64%,,,,
CO[C@H]1C(=O)[C@]2(C)[C@@H](OC)C[C@H]3OC[C@@]3(OC(C)=O)[C@H]2[C@H](OC(=O)c2ccccc2)[C@]2(O)C[C@H](OC(=O)[C@H](O)[C@@H](NC(=O)OC(C)(C)C)c3ccccc3)C(C)=C1C2(C)C [Cabazitaxel],-8.77%,53.80%,-20.49%,62.20%,,,,
CC[C@@]1(O)C(=O)OCc2c1cc1n(c2=O)Cc2cc3ccccc3nc2-1 [Camptothecin],4.52%,47.66%,4.34%,49.89%,,,,
C=CC(=O)Nc1cc2c(Nc3ccc(F)c(Cl)c3)ncnc2cc1OCCCN1CCOCC1 [Canertinib],-58.69%,76.85%,-55.96%,79.80%,,,,
CCCCCOC(=O)Nc1nc(=O)n([C@@H]2O[C@H](C)[C@@H](O)[C@H]2O)cc1F [Capecitabine],3.89%,47.95%,10.65%,46.76%,,,,
N.N.O=C([O-])C1(C(=O)[O-])CCC1.[Pt+2] [Carboplatin],3.32%,48.22%,9.11%,47.52%,,,,
CC(C)C[C@H](NC(=O)[C@H](CCc1ccccc1)NC(=O)CN1CCOCC1)C(=O)N[C@@H](Cc1ccccc1)C(=O)N[C@@H](CC(C)C)C(=O)[C@@]1(C)CO1 [Carfilzomib],-2.16%,50.75%,-9.02%,56.51%,,,,
O=NN(CCCl)C(=O)NCCCl [Carmustine],1.59%,49.02%,7.94%,48.11%,,,,
Cc1ccc(-c2cc(C(F)(F)F)nn2-c2ccc(S(N)(=O)=O)cc2)cc1 [Celecoxib],-8.28%,53.57%,-15.35%,59.65%,,,,
Cc1cc(Nc2ncc(Cl)c(Nc3ccccc3S(=O)(=O)C(C)C)n2)c(OC(C)C)cc1C1CCNCC1 [Ceritinib],-42.78%,69.51%,-39.63%,71.70%,,,,
O=C(O)CCCc1ccc(N(CCCl)CCCl)cc1 [Chlorambucil],2.87%,48.43%,1.52%,51.29%,,,,
CCN(CC)CCCC(C)Nc1ccnc2cc(Cl)ccc12 (stereo not drawn) [Chloroquine diphosphate],,,,,43.64%,13.23%,46.45%,11.28%
N.N.[Cl][Pt][Cl] [Cisplatin aq],26.89%,37.33%,26.45%,38.92%,,,,
Nc1nc(Cl)nc2c1ncn2[C@H]1C[C@H](O)[C@@H](CO)O1 [Cladribine],3.47%,48.15%,3.70%,50.21%,,,,
"O=P1(N(CCCl)CCCl)NCCCO1 (stereo not drawn) [Clafen (Cyclophosphamide, Endoxan)]",,,,,48.48%,2.76%,50.72%,2.67%
Nc1nc(Cl)nc2c1ncn2[C@@H]1O[C@H](CO)[C@@H](O)[C@@H]1F [Clofarabine],6.71%,46.65%,3.66%,50.22%,,,,
CCN(CC)CCOc1ccc(C(=C(Cl)c2ccccc2)c2ccccc2)cc1 [Clomifene citrate],59.99%,22.05%,68.69%,17.97%,,,,
O=C(c1ccc(F)c(F)c1Nc1ccc(I)cc1F)N1CC(O)([C@@H]2CCCCN2)C1 [Cobimetinib],-5.94%,52.49%,-8.08%,56.05%,,,,
CC1(COc2ccc3c(c2)ncn3-c2ccc3cccc(N4CCC(N)CC4)c3n2)COC1 [Crenolanib],-2.58%,50.94%,-3.79%,53.92%,,,,
C[C@@H](Oc1cc(-c2cnn(C3CCNCC3)c2)cnc1N)c1c(Cl)ccc(F)c1Cl [Crizotinib],-6.35%,52.68%,-0.27%,52.18%,,,,
O=P1(N(CCCl)CCCl)NCCCO1 (stereo not drawn) [Cyclophosphamide],,,,,44.96%,10.37%,48.17%,7.81%

# From paper PMC7588595, “Small-molecule active pharmaceutical ingredients of approved cancer therapeutics inhibit human aspartate/asparagine-β-hydroxylase” (Bioorganic & Medicinal Chemistry, 2020)
